From US20080045514A1 (Cytovia, Inc., priority 2006, published 2008)

Assays:
Format in all cases: cell-based
[1] = tested on: human cancer cell line H1299; assay: Caspase cascade activation (EC50), H1299; details: NCI-H1299, H1299 cells, read-out: caspase potency (EC50) H1299
How it was run: (§1)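 Test compound (0.016–10 μM final) is incubated with cells for 48 h at 37 °C. Caspase-3-like activity is measured by 3 h room-temperature cleavage of DEVD-R110 in PIPES pH 7.2 lysis buffer, with EC50 from sigmoidal fitting of background-corrected RFU relative to control.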

[2] = tested on: human lung cancer cell line H1299; assay: Inhibition of cell proliferation (GI50), H1299; details: NCI-H1299, H1299 cells, 48 h, CellTiter-Glo
Method: Human breast cancer cell lines T-47D, human hepatocellular carcinoma cell line SNU398, human colon carcinoma cell line HCT116, human lung cancer cell line H1299, human leukemia cell line K562, human lymphoma cell line Raji, human B cell lymphoblastoid cell line Ramos, and human Burkitt's lymphoma cell line Namalwa were grown and harvested as in Example 100. An aliquot of […] of cells (4.4×10^4 cells/mL) was added to a well of a 96-well microtiter plate containing 5 μL of a 10% DMSO in RPMI-1640 media solution containing 10 nM to 100 μM of 3-(2-chlorophenyl)-6-(3,4-methylenedioxyphenyl)-7H-[1,2,4]triazolo[3,4-b][1,3,4]thiadiazine (1 nM to 10 μM final). An aliquot of 45 μL of cells was added to a well of a 96-well microtiter plate containing 5 μL of a 10% DMSO in RPMI-1640 media solution without compound as the control sample for maximal cell proliferation (LMax). The samples were mixed by agitation and then incubated at 37° C. for 48 h in a 5% CO2-95% humidity incubator. After incubation, the samples were removed from the incubator and 25 μL of CellTiter-Glo™ reagent (Promega) was added. The samples were mixed by agitation and incubated at room temperature for 10-15 min. Plates were then read using a luminescent plate reader (Model SPECTRAfluor Plus, Tecan) to give Ltest values.
The samples were mixed by agitation and then incubated at 37° C. for 0.5 h in a 5% CO2-95% humidity incubator. After incubation, the samples were removed from the incubator and 25 μL of CellTiter-Glo™ reagent (Promega) was added. The samples were mixed by agitation and incubated at […] 10-15 min at room temperature in a 5% CO2-95% humidity incubator. Fluorescence was read as above, (LStart) defining luminescence for initial cell number used as baseline in GI50 determinations.
Calculation: GI50 (dose for 50% inhibition of cell proliferation) is the concentration where [(Ltest−LStart)/(LMax−LStart)]=0.5.

[3] = tested on: human B cell lymphoblastoid cell line Ramos; assay: Inhibition of cell proliferation (GI50), Ramos; details: Homo sapiens; Ramos cells, 48 h, CellTiter-Glo
How it was run: (§2)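 48 h continuous treatment, 37 °C; final dose range 1 nM–10 μM; ATP-based luminescent viability (CellTiter-Glo); GI50 relative to 0.5 h start signal.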

[4] = tested on: human breast cancer cell line T-47D; assay: Caspase cascade activation (EC50), T-47D; details: Homo sapiens; T47D cells; caspase cascade activation; read-out: caspase potency (EC50) T47D
How it was run: as §1

[5] = tested on: human colon carcinoma cell line HCT116; assay: Caspase cascade activation (EC50), HCT116; details: Homo sapiens, HCT-116; HCT116 cells; caspase cascade activation; read-out: caspase potency (EC50) HCT116
How it was run: as §1

[6] = tested on: human colon carcinoma cell line HCT116; assay: Inhibition of cell proliferation (GI50), HCT116; details: Homo sapiens; HCT 116 cells, 48 h, CellTiter-Glo
How it was run: as §2

[7] = tested on: human lymphoma cell line Raji; assay: Caspase cascade activation (EC50), Raji; details: Homo sapiens, RAJI cells, read-out: caspase potency (EC50) RAJI
How it was run: as §1

[8] = tested on: human lymphoma cell line Raji; assay: Inhibition of cell proliferation (GI50), Raji; details: Homo sapiens; Raji cells, 48 h, CellTiter-Glo
How it was run: as §2

[9] = tested on: human Burkitt's lymphoma cell line Namalwa; assay: Caspase cascade activation (EC50), Namalwa; details: Homo sapiens, Burkitts lymphoma cell; Namalwa cells; caspase cascade activation; read-out: caspase potency (EC50) Namalwa
How it was run: as §1

[10] = tested on: human breast cancer cell line T-47D; assay: Inhibition of cell proliferation (GI50), T47D; details: Homo sapiens; T47D cells, 48 h, CellTiter-Glo
How it was run: as §2

[11] = tested on: human leukemia cell line K562; assay: Inhibition of cell proliferation (GI50), K562; details: Homo sapiens; K562 cells, 48 h, CellTiter-Glo
How it was run: as §2

[12] = tested on: human B cell lymphoblastoid cell line Ramos; assay: Caspase cascade activation (EC50), Ramos; details: Homo sapiens, RAMOS cells, read-out: caspase potency (EC50) RAMOS
How it was run: as §1

[13] = tested on: human hepatocellular carcinoma cell line SNU398; assay: Caspase cascade activation (EC50), SNU398; details: Homo sapiens, SNU-398; SNU398 cells; caspase cascade activation; read-out: caspase potency (EC50) SNU398
How it was run: as §1

[14] = tested on: human Burkitt's lymphoma cell line Namalwa; assay: Inhibition of cell proliferation (GI50), Namalwa; details: Homo sapiens, Burkitts lymphoma cell; Namalwa cells, 48 h, CellTiter-Glo
How it was run: as §2

[15] = tested on: human hepatocellular carcinoma cell line SNU398; assay: Inhibition of cell proliferation (GI50), SNU398; details: Homo sapiens; SNU 398 cells, 48 h, CellTiter-Glo
How it was run: as §2

Compound | EC50 [1] [nM] | GI50 [2] [nM] | GI50 [3] [nM] | EC50 [4] [nM] | EC50 [5] [nM] | GI50 [6] [nM] | EC50 [7] [nM] | GI50 [8] [nM] | EC50 [9] [nM] | GI50 [10] [nM] | GI50 [11] [nM] | EC50 [12] [nM] | EC50 [13] [nM] | GI50 [14] [nM] | GI50 [15] [nM]
COc1ccc(C2=Nn3c(nnc3-c3ccc(Cl)cc3)SC2)cc1 [D, 3-(4-Chlorophenyl)-6-(4-methoxyphenyl)-7H-[1,2,4]triazolo[3,4-b][1,3,4]thiadiazine] | 142 | 42 | 21 | 315 | 130 | 2120 | 84 | 1500 | 58 | 144 | 31 | 63 | 82 | 1500 | –
CCOc1cccc(-c2nnc3n2N=C(c2ccc(O)c(O)c2)CS3)c1 [Example C1, 3-(3-Ethoxyphenyl)-6-(3,4-dihydroxyphenyl)-7H-[1,2,4]triazolo[3,4-b][1,3,4]thiadiazine] | 1310 | 1010 | 1390 | 1320 | > 10000 | 2340 | 706 | 2890 | – | 1370 | 453 | 925 | 1220 | 2870 | –
COc1ccc(C2=Nn3c(nnc3-c3ccccc3OC)SC2)cc1OC [Example K1, 3-(2-Methoxyphenyl)-6-(3,4-dimethoxyphenyl)-7H-[1,2,4]triazolo[3,4-b][1,3,4]thiadiazine] | 374 | 191 | 41 | 506 | 134 | 253 | 137 | 39 | 106 | 461 | 99 | 88 | 70 | 38 | –
COc1ccc(C2=Nn3c(nnc3-c3cc(OC)c(OC)c(OC)c3)SC2)cc1OC [Example L1, 3-(3,4,5-Trimethoxyphenyl)-6-(3,4-dimethoxyphenyl)-7H-[1,2,4]triazolo[3,4-b][1,3,4]thiadiazine] | 573 | 339 | 76 | 499 | 178 | 200 | 180 | 150 | 122 | 200 | 163 | 130 | 132 | 243 | 147
Cc1ccccc1-c1nnc2n1N=C(c1ccc3c(c1)OCO3)CS2 [Example M, 3-(2-Methylphenyl)-6-(3,4-methylenedioxyphenyl)-7H-[1,2,4]triazolo[3,4-b][1,3,4]thiadiazine] | 420 | 214 | 164 | 282 | 317 | 825 | 399 | 2220 | 144 | 124 | 239 | 452 | 254 | 122 | –
CCOc1ccc(C2=Nn3c(nnc3-c3ccc(Cl)cc3)SC2)cc1 [F, 3-(4-Chlorophenyl)-6-(4-ethoxyphenyl)-7H-[1,2,4]triazolo[3,4-b][1,3,4]thiadiazine] | 275 | 58 | 15 | 561 | 141 | 419 | 155 | 136 | 69 | 151 | 47 | 106 | 89 | 120 | –
COc1ccccc1-c1nnc2n1N=C(c1ccc(Br)cc1)CS2 [W, 3-(2-Methoxyphenyl)-6-(4-bromophenyl)-7H-[1,2,4]triazolo[3,4-b][1,3,4]thiadiazine] | 552 | 161 | 141 | 313 | 243 | 489 | 322 | 299 | – | 135 | 178 | 175 | 164 | 314 | –

Further compounds by falling EC50 [1], results first:

EC50 [1] [nM] | GI50 [2] [nM] | GI50 [3] [nM] | EC50 [4] [nM] | EC50 [5] [nM] | GI50 [6] [nM] | EC50 [7] [nM] | GI50 [8] [nM] | EC50 [9] [nM] | GI50 [10] [nM] | GI50 [11] [nM] | EC50 [12] [nM] | EC50 [13] [nM] | GI50 [14] [nM] | GI50 [15] [nM] | Compound
755 | 510 | – | 2400 | 559 | – | 502 | – | 278 | 2540 | – | 278 | 367 | – | – | COc1ccc(C2=Nn3c(nnc3-c3ccccc3Cl)SC2)cc1OC [N, 3-(2-Chlorophenyl)-6-(3,4-dimethoxyphenyl)-7H-[1,2,4]triazolo[3,4-b][1,3,4]thiadiazine]
697 | 667 | – | 5130 | 578 | – | 479 | – | 267 | 2620 | – | 272 | 316 | – | – | COc1ccc(C2=Nn3c(nnc3-c3ccccc3C)SC2)cc1OC [K, 3-(2-Methylphenyl)-6-(3,4-dimethoxyphenyl)-7H-[1,2,4]triazolo[3,4-b][1,3,4]thiadiazine]
370 | 202 | 118 | 235 | 231 | 884 | 339 | 426 | 123 | 175 | 214 | 289 | 189 | 472 | – | Clc1ccccc1-c1nnc2n1N=C(c1ccc3c(c1)OCO3)CS2 [Example P, 3-(2-chlorophenyl)-6-(3,4-methylenedioxyphenyl)-7H-[1,2,4]triazolo[3,4-b][1,3,4]thiadiazine]
277 | 48 | 45 | 505 | 231 | 81 | 101 | 90 | 78 | 130 | 32 | 107 | 75 | 13 | 60 | COc1ccc(C2=Nn3c(nnc3-c3ccc(Cl)cc3Cl)SC2)cc1OC [Example G1, 3-(2,4-Dichlorophenyl)-6-(3,4-dimethoxyphenyl)-7H-[1,2,4]triazolo[3,4-b][1,3,4]thiadiazine]
